Laboratory results reported in article PMC12508057, “Discovery of ETI41 and ETI60: novel selective endosomal Toll-like receptor inhibitors for the treatment of autoimmune diseases” (Experimental & Molecular Medicine, 2025).
pKd: −log10 of the molar value. Read-outs that look alike come from different tables or passages of the source.

Legend:
IL-23-induced psoriasis = IL-23-induced psoriasis in mice; format: in vivo, mouse; conditions: 60 mg/kg oral daily; for Improvement of disease symptoms: versus anti-IL-17A antibody IP
Experimental: (§1) Six-week-old female C57BL/6J mice were assigned to the following treatment groups: vehicle (n = 5), IMQ (n = 5), ETI41 (n = 4) and ETI60 (n = 5). The mice were obtained from Orient Bio to evaluate the effects of ETI41 and ETI60 on induced psoriasis-like symptoms. This study was approved by the Institutional Animal Care and Use Committee (IACUC; approval no. 2014-0007). Psoriasis was induced using Aldara cream (3M Pharmaceuticals), which was applied topically at 62.5 mg/cm² daily from the day after hair removal until the fourth day. Mice were orally administered 60 mg/kg ETI41 or ETI60 daily commencing on the second day of induction. For IL-23-induced psoriasis, the mice were assigned to the following treatment groups: vehicle (n = 5), IL-23 (n = 5), ETI41 (n = 5), ETI60 (n = 5) and anti-IL-17 Ab (n = 5). Recombinant mouse IL-23 (0.25 mg/kg; BioLegend) was administered via intradermal injection around the ear daily, starting the day after hair removal and continuing until the eighth day. Positive control mice received intraperitoneal (IP) injections of 30 mg/kg anti-mouse IL-17A antibody (BioLegend) on days 2, 5 and 8, while test group mice were administered daily oral doses of 60 mg/kg of ETI41 or ETI60. Changes in body weight and Psoriasis Area and Severity Index (PASI) scores (erythema, scaling and thickness) were recorded daily. Mice were initially anesthetized in an induction chamber with a gas mixture of 4% isoflurane in 70:30 […] and O2, delivered at a flow rate of 0.8 l/min. Subsequently, the isoflurane concentration was reduced to 2%, and the mice were euthanized under anesthesia via endotracheal intubation. Skin samples were collected, fixed and stained with hematoxylin and eosin for histological analysis. Dermal and epidermal thicknesses were measured using a Leica DMi8 microscope (Leica). Immunohistochemical analyses were performed using primary antibodies against CD68 (R&D Systems, MAB101141), Ki-67 (Cell Signaling Technology, 12202), IL-17A (Novus Biologicals, NBP1-72027) and IL-23 (Novus Biologicals, NBP1-76697), followed by detection using biotinylated secondary antibodies (Vector Laboratories) and diaminobenzidine (Vector Laboratories) visualization. Fluorescence measurements for IL-23-induced psoriasis were performed using primary antibodies against CD68 and Ki-67, followed by Alexa Fluor-conjugated secondary antibodies (Life Technologies). Fluorescence was analyzed using a Leica DMi8 microscope.
(§2) Anti-IL17A antibody (Ab, 60 µg) was administered by IP injection as a positive control on days 2, 5 and 8. […] CD68 and Ki-67 expression patterns were determined in skin sections from a representative of each group using immunofluorescence. i Ear skin and epidermis thickness, CD68 expression and percentage of Ki-67 cells were examined from 4’,6-diamidino-2-phenylindole-stained cells. Statistical differences between the induced case and other cases were analyzed and verified using a one-tailed Student’s t-test (*P < 0.05, **P < 0.01, ***P < 0.001).
Next, we investigated the therapeutic efficacy of ETI41 and ETI60 in an IL-23-induced mouse model of psoriasis. Psoriasis was induced through intradermal injections of recombinant murine IL-23. As a positive control, an IL-17A antibody was administered intraperitoneally at a dose of 30 mg/kg on days 2, 5 and 8 (Fig. 4f). ETI41 or ETI60 was orally administered daily at a dose of 60 mg/kg. […] These findings indicate that ETI41 and ETI60 effectively alleviate the progression of psoriasis, either through direct involvement of TLR7 or through an indirect involvement of the IL-23–Th17 axis.

murine TLR9 = target: T1, murine TLR9 (Mus musculus, UniProt Q9EQU3); test: SPR binding to TLR9
T1 construct: Fc; purchased R&D Systems
T1 sequence (Q9EQU3 with tags, fused parts or gaps limits assumed): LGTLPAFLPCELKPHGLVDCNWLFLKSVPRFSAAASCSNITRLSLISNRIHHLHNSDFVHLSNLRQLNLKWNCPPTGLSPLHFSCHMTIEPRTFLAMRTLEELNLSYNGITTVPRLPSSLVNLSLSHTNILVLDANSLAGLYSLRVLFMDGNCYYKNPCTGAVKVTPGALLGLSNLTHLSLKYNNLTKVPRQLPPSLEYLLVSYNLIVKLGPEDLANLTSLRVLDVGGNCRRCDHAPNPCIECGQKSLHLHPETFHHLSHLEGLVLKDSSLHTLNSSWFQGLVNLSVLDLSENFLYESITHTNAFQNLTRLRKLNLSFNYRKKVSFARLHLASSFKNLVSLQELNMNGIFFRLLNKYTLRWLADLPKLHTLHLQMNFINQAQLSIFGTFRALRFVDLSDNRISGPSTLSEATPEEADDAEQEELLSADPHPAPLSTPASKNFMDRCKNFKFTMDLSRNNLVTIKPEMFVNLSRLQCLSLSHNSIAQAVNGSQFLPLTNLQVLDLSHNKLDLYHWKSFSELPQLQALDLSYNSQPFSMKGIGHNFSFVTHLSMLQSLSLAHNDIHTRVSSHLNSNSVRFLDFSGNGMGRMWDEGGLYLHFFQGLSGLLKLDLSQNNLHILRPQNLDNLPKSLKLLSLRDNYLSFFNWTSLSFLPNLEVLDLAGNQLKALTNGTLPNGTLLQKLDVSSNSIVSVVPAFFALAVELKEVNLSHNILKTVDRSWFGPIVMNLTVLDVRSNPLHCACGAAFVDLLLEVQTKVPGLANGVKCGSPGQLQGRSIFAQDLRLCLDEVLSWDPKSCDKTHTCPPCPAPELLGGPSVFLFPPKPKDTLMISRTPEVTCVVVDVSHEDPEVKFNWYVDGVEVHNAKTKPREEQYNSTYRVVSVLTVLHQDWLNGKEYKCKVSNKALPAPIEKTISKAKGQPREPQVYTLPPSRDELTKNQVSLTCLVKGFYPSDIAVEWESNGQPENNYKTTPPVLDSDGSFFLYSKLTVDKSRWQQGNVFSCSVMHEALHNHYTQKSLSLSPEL
Experimental: Surface plasmon resonance (SPR) analysis was conducted using an SR7500DC SPR System (Reichert) with a CMDH chip for human TLR7 and murine TLR9 (R&D Systems) and a Biacore T200 platform (Cytiva) with a CM5 chip for TLR9–ODN binding. The running buffer contained 0.5% DMSO and phosphate-buffered saline, and 50 mM NaOH was used for regeneration. ETI series compounds were serially diluted from 500 μM and tested for binding affinity. Binding curves were analyzed using Scrubber2 and Biacore T200 evaluation softwares. The dissociation constants (KD) were calculated as KD = kd/ka.
SPR confirmed the binding mechanisms of ETI41 and ETI60 with TLR7 and TLR9, respectively, under three conditions: (a) early endosome (pH 7.4), (b) late endosome without CpG (pH 5.5) and (c) late endosome with CpG (pH 5.5). (a) Both ETI41 and ETI60 were measured for parameters indicating binding affinity, including the KD value presented in Table 3, and were further analyzed under conditions (b) and (c), depending on the presence or absence of ligand, to explain the binding mechanism occurring in TLR9.

IMQ-induced psoriasis = IMQ-induced psoriasis in mice; format: in vivo, mouse; conditions: 60 mg/kg oral daily
Experimental: as §1, §2

[1] = acidic pH 5.5 (late endosome), without or with CpG
[2] = neutral pH 7.4 (early endosome)

SMILES | Body weight (IL-23-induced psoriasis) | CD68 expression (IL-23-induced psoriasis) | Ear thickness (IL-23-induced psoriasis) | Epidermal thickness (IL-23-induced psoriasis) | Ki-67 keratinocyte proliferation (IL-23-induced psoriasis) | Improvement of disease symptoms (IL-23-induced psoriasis) | pKd (murine TLR9; Fc-TLR9, pH 7.4) | kd (murine TLR9; Fc-TLR9, pH 7.4) [s⁻¹] | kon (murine TLR9; Fc-TLR9, pH 7.4, read-out: ka) [M⁻¹ s⁻¹] | SPR binding to TLR9 (murine TLR9; [1]) | SPR binding to TLR9 (murine TLR9; [2]) | Dermal inflammatory cell infiltration (IMQ-induced psoriasis) | Dermal thickness (IMQ-induced psoriasis) | Epidermal acanthosis (IMQ-induced psoriasis) | IL-17A and IL-23 expression (IMQ-induced psoriasis) | Keratinocyte proliferation (IMQ-induced psoriasis) | PASI scores (IMQ-induced psoriasis) | kon (murine TLR9; pH 7.4, read-out: ka) [M⁻¹ s⁻¹]
COc1ccc2c3c(N)c4c(nc3n(CCCN(C)C)c2c1)CCCC4 [ETI60] | without significant differences | significantly decreased | significantly decreased | significantly decreased | significantly decreased | comparable to or better than the anti-IL-17A antibody | 2.82 | 0.106 | 71 | binding was detected only in the late endosomal state where the natural ligand is present | clear binding affinity | inhibited | significantly reduced | significantly reduced | inhibited | significantly reduced | significantly reduced | 
Cc1cc2c(N)c3c(nc2n1CCCN(C)C)CCCCCC3 [ETI41] | without significant differences | significantly decreased | significantly decreased | significantly decreased | significantly decreased | comparable to or better than the anti-IL-17A antibody |  | 0.191 |  | binding was detected only in the late endosomal state where the natural ligand is present | clear binding affinity | inhibited | significantly reduced | significantly reduced | inhibited | significantly reduced | significantly reduced | 10
